Source: publication PMC9230201, “Sustained Consumption of a Decaffeinated Green Coffee Nutraceutical Has Limited Effects on Phenolic Metabolism and Bioavailability in Overweight/Obese Subjects” (Nutrients, 2022)

Tests used:
[1] = Fecal excretion of phenolic metabolites after intake of the GCPE nutraceutical; details: feces
[2] = Urinary excretion of phenolic metabolites after intake of the GCPE nutraceutical; details: for Cumulative urinary excretion, Total 0–24 h / Urinary excretion: urine; for Cumulative urinary excretion, Total 0–24 h: mean ± SEM, n = 9
Experimental: Participants attended the Human Nutrition Unit (HNU) at the Institute of Food Science, Technology and Nutrition (ICTAN-CSIC) on two consecutive days at the beginning of the intervention (week 0) and also on two consecutive days at the end of the study, after consuming daily two doses of the GCPE nutraceutical, providing 600 mg/d phenols, during two months (week 8). […] A licensed health care professional placed an intravenous catheter in the subjects′ nondominant arm and collected a fasting blood sample (baseline, 0 h). Then, subjects drank the soluble GCPE nutraceutical dissolved in 200 mL of water. […] On the sampling days, volunteers remained at the HNU, where a (poly)phenol-free diet was provided. Half an hour after consuming the nutraceutical, volunteers ate a breakfast consisting of ham, cheese, white bread, and a yogurt. Lunch (paella, bread, and yogurt) and an afternoon snack (muffin and yogurt) were eaten 5 and 9 h, respectively, after consuming the nutraceutical. Water and isotonic beverages were freely available. […] The same protocol was followed during visits at the end of the 8-week intervention. On each occasion, two days before each visit to the HNU, subjects consumed a low (poly)phenol diet free of foods containing hydroxycinnamates such as coffee, herbal teas, red wine, artichokes, whole grain cereals, vegetables, fruits and fruit juices, and dried fruits. Only banana, watermelon, cantaloupes, and potatoes were allowed.
(§1) Blood samples were immediately centrifuged (10 min, 3000 rpm, 4 °C) to obtain plasma. […] All biological samples were stored at −80 °C until analysis.
To extract plasma metabolites, 10 µL of 50% (v/v) aqueous formic acid, and 900 µL cold acetonitrile containing 50 µL of 10% (w/v) ascorbic acid were added to 400 µL defrosted plasma. Samples were vortexed and centrifuged (14,000 rpm, 10 min, 4 °C), repeating the extraction and combining the two supernatants, which were reduced to dryness under nitrogen [13]. Dried samples were resuspended in 150 µL of 0.1% aqueous formic acid (containing 10% acetonitrile acidified with 0.1% formic acid), centrifuged (15 min, 14,000 rpm, 4 °C), and the supernatant collected. Urine samples were diluted 1:1 with Milli-Q water and centrifuged (14,000 rpm, 20 min, 4 °C) prior to analysis. Phosphate-buffered saline (3 mL) was added to a representative 300 mg sample of thawed feces, homogenized in an ultrasound bath during 10 min, centrifuged (14,000 rpm, 20 min, 4 °C), and the supernatants collected.
Mobile phase A was 0.1% formic acid in Milli-Q water, and mobile phase B was acetonitrile containing 0.1% formic acid at a 0.3 mL/min flow rate. […] Metabolites were identified based on their retention time using authentic standards when possible. […] Urine concentration of excreted metabolites was normalized to the total volume excreted in each studied interval.
Plasma (30 µL), urine (5 µL) and fecal extracts (5 µL) were filtered through 0.45 µm
cellulose-acetate membrane filters and injected into an Agilent 1200 series LC system
ESI-Jet Stream Technology (Agilent Technologies). A reverse-phase Ascentis Express
C18 (15 cm x 3 mm, 2.7 µm) column (Sigma-Aldrich Quimica, Madrid), preceded by a
phase A was 0.1% formic acid in Milli-Q water, and mobile phase B was acetonitrile
containing 0.1% formic acid at a 0.3 mL/min flow rate. The gradient started with 10% B
at 0 min, 30% B at 10 min, 40% B at 15 min, reaching 50% B at 20 min. The starting
gradient was then re-established in 2 min and maintained for 8 min to re-equilibrate the

[3] = Plasma pharmacokinetics of phenolic metabolites after intake of the GCPE nutraceutical (LC-MS-QToF); details: for AUC(0-t) / Tmax: 300 mg hydroxycinnamic acids; for AUC(0-t): AUC0–24h; for Tmax: Tmax (h) or Range; for Cmax: mean ± SEM, n = 9
Experimental: Participants attended the Human Nutrition Unit (HNU) at the Institute of Food Science, Technology and Nutrition (ICTAN-CSIC) on two consecutive days at the beginning of the intervention (week 0) and also on two consecutive days at the end of the study, after consuming daily two doses of the GCPE nutraceutical, providing 600 mg/d phenols, during two months (week 8). On each occasion, on the first visit day (Figure 1), subjects arrived at the HNU after an overnight (12 h) fast and provided a urine sample. A licensed health care professional placed an intravenous catheter in the subjects′ nondominant arm and collected a fasting blood sample (baseline, 0 h). Then, subjects drank the soluble GCPE nutraceutical dissolved in 200 mL of water. Subsequently, blood samples were collected in EDTA-coated tubes at 0.5, 1, 1.5, 2, 3, 4, 6, 8, 10, and 11 h. On the sampling days, volunteers remained at the HNU, where a (poly)phenol-free diet was provided. Half an hour after consuming the nutraceutical, volunteers ate a breakfast consisting of ham, cheese, white bread, and a yogurt. Lunch (paella, bread, and yogurt) and an afternoon snack (muffin and yogurt) were eaten 5 and 9 h, respectively, after consuming the nutraceutical. Water and isotonic beverages were freely available. Volunteers were instructed to eat a (poly)phenol-free dinner that night and to attend the HNU on the next day after a 12 h fast. Then, a final blood sample was obtained from the antecubital vein 24 h after consuming the nutraceutical. The same protocol was followed during visits at the end of the 8-week intervention. On each occasion, two days before each visit to the HNU, subjects consumed a low (poly)phenol diet free of foods containing hydroxycinnamates such as coffee, herbal teas, red wine, artichokes, whole grain cereals, vegetables, fruits and fruit juices, and dried fruits. Only banana, watermelon, cantaloupes, and potatoes were allowed.
as §1
To extract plasma metabolites, 10 µL of 50% (v/v) aqueous formic acid, and 900 µL cold acetonitrile containing 50 µL of 10% (w/v) ascorbic acid were added to 400 µL defrosted plasma. Samples were vortexed and centrifuged (14,000 rpm, 10 min, 4 °C), repeating the extraction and combining the two supernatants, which were reduced to dryness under nitrogen [13]. Dried samples were resuspended in 150 µL of 0.1% aqueous formic acid (containing 10% acetonitrile acidified with 0.1% formic acid), centrifuged (15 min, 14,000 rpm, 4 °C), and the supernatant collected.
A reverse-phase Ascentis Express C18 (15 cm × 3 mm, 2.7 µm) column (Sigma-Aldrich Quimica, Madrid, Spain), preceded by a Supelco 55215-U guard column (3 mm × 5 mm, 2.7 µm), was used for separation. Mobile phase A was 0.1% formic acid in Milli-Q water, and mobile phase B was acetonitrile containing 0.1% formic acid at a 0.3 mL/min flow rate. […] Metabolites were identified based on their retention time using authentic standards when possible.

[4] = human, oral, week 0, first peak where biphasic
[5] = human, oral, week 8, first peak where biphasic
[6] = human, oral, 300 mg, Cmax, week 0, GCPE nutraceutical with 300 mg hydroxycinnamic acids
[7] = human, oral, 300 mg, Cmax, week 8, GCPE nutraceutical with 300 mg hydroxycinnamic acids
[8] = week 0, GCPE nutraceutical with 300 mg hydroxycinnamic acids
[9] = week 0, first peak where biphasic
[10] = week 8, GCPE nutraceutical with 300 mg hydroxycinnamic acids
[11] = week 8, first peak where biphasic
[12] = week 8, listed as 3′-hydroxyphenylacetic acid

SMILES | Amount of fecal metabolite excreted at 0 h ([1]; week 0, mean ± SEM, n = 9) [µmol/g] | Amount of fecal metabolite excreted at 0 h ([1]; week 8) [µmol/g] | Amount of fecal metabolite excreted at 24 h ([1]; week 0) [µmol/g] | Amount of fecal metabolite excreted at 24 h ([1]; week 8) [µmol/g] | Cumulative urinary excretion, Total 0–24 h ([2]; week 0) [µmol] | Cumulative urinary excretion, Total 0–24 h ([2]; week 8) [µmol] | Amount excreted in urine, 0- 3 h ([2]; week 0, interval 0–3 h) [µmol] | Amount excreted in urine, 3-6 h ([2]; week 0, interval 3–6 h) [µmol] | Amount excreted in urine, 6-9 h ([2]; week 0, interval 6–9 h) [µmol] | Amount excreted in urine, 9-11 h ([2]; week 0, interval 9–11 h) [µmol] | Amount excreted in urine, 11-24 h ([2]; week 0, interval 11–24 h) [µmol] | Amount excreted in urine, 0- 3 h ([2]; week 8, interval 0–3 h) [µmol] | Amount excreted in urine, 3-6 h ([2]; week 8, interval 3–6 h) [µmol] | Amount excreted in urine, 6-9 h ([2]; week 8, interval 6–9 h) [µmol] | Amount excreted in urine, 9-11 h ([2]; week 8, interval 9–11 h) [µmol] | Amount excreted in urine, 11-24 h ([2]; week 8, interval 11–24 h) [µmol] | AUC(0-t) ([3]; human, oral, week 0) [µM·h] | AUC(0-t) ([3]; human, oral, week 8) [µM·h] | Tmax [3, 4] [h] | Tmax [3, 5] [h] | also measured
O=C(O)c1cccc(O)c1 [3-Hydroxybenzoic acid] | 0.03 ± 0.02 | 0.020 ± 0.008 | 0.03 ± 0.01 | 0.020 ± 0.007 | 0.91 ± 0.07 | 1.0 ± 0.1 | 0.09 ± 0.02 | 0.05 ± 0.01 | 0.08 ± 0.02 | 0.064 ± 0.009 | 0.26 ± 0.02 | 0.1 ± 0.01 | 0.06 ± 0.01 | 0.11 ± 0.02 | 0.07 ± 0.02 | 0.19 ± 0.04 | 0.7 ± 0.3 | 0.8 ± 0.3 | 8 ± 1 | 4 ± 1 | Cmax [3, 6]: 80 ± 20 nM; Cmax [3, 7]: 100 ± 30 nM
O=C(O)Cc1ccc(O)c(O)c1 [3′,4′-Dihydroxyphenylacetic acid] |  |  |  | 0.010 ± 0.008 | 1.2 ± 0.2 | 1.3 ± 0.2 | 0.12 ± 0.03 | 0.08 ± 0.03 | 0.11 ± 0.05 | 0.06 ± 0.02 | 0.38 ± 0.04 | 0.15 ± 0.03 | 0.05 ± 0.02 | 0.08 ± 0.02 | 0.09 ± 0.03 | 0.31 ± 0.03 |  |  |  |  | 
O=C(O)Cc1cccc(O)c1 [3′-Hydroxyphenylacetic acid] | 0.31 ± 0.09 | 0.18 ± 0.08 | 0.21 ± 0.08 | 0.11 ± 0.04 | 12 ± 3 | 9 ± 2 | 1.6 ± 0.5 | 1 ± 0.2 | 0.8 ± 0.2 | 0.53 ± 0.09 | 2.5 ± 0.7 | 1 ± 0.2 | 0.7 ± 0.2 | 0.7 ± 0.1 | 0.6 ± 0.2 | 1.8 ± 0.6 |  |  |  |  | AUC0–24h ([3]; week 0): 2.6 ± 0.9 µM/min; Cmax [3, 8]: 200 ± 70 nM; Tmax (h) or Range [3, 9]: 8 ± 2 h; AUC0–24h ([3]; week 8): 1.6 ± 0.6 µM/min; Cmax [3, 10]: 150 ± 50 nM; Tmax (h) or Range [3, 11]: 5 ± 1 h; Amount of fecal metabolite excreted at 0 h ([1]; week 0, mean ± SEM, n = 9, listed as 3′-hydroxyphenylacetic acid): 0.31 µmol/g; Amount of fecal metabolite excreted at 0 h [1, 12]: 0.18 µmol/g; Amount of fecal metabolite excreted at 24 h ([1]; week 0, listed as 3′-hydroxyphenylacetic acid): 0.21 µmol/g; Amount of fecal metabolite excreted at 24 h [1, 12]: 0.11 µmol/g; Amount excreted in urine, TOTAL ([2]; week 0, Table S5 total): 12 ± 3 µmol
COc1cc(C(=O)O)ccc1O [4-Hydroxy-3-methoxybenzoic acid] | 0.06 ± 0.03 | 0.006 ± 0.006 |  |  |  |  |  |  |  |  |  |  |  |  |  |  | 9 ± 2 | 14 ± 4 | 7 ± 3 | 7 ± 2 | Cmax [3, 6]: 1100 ± 200 nM; Cmax [3, 7]: 1600 ± 400 nM
O=C(O)c1ccc(O)cc1 [4-Hydroxybenzoic acid] | 0.004 ± 0.004 | 0.006 ± 0.004 | 0.0006 ± 0.0004 | 0.01 ± 0.01 | 1.3 ± 0.2 | 1.01 ± 0.09 | 0.3 ± 0.2 | 0.11 ± 0.02 | 0.1 ± 0.02 | 0.09 ± 0.01 | 0.29 ± 0.04 | 0.14 ± 0.02 | 0.1 ± 0.01 | 0.09 ± 0.02 | 0.08 ± 0.02 | 0.26 ± 0.03 | 0.9 ± 0.2 | 0.5 ± 0.2 | 7 ± 2 | 5 ± 3 | Cmax [3, 6]: 90 ± 10 nM; Cmax [3, 7]: 80 ± 10 nM; Urinary excretion ([2]; week 0): 1.3 µmol/24 h; Urinary excretion ([2]; week 8): 1.01 µmol/24 h
O=C(O)/C=C/c1ccc(O)c(O)c1 [CA, 3′,4′-Dihydroxycinnamic acid] |  | 0.003 ± 0.002 | 0.0003 ± 0.0003 | 0.003 ± 0.003 | 0.42 ± 0.06 | 0.45 ± 0.09 | 0.13 ± 0.03 | 0.08 ± 0.02 | 0.08 ± 0.03 | 0.023 ± 0.008 | 0.12 ± 0.02 | 0.12 ± 0.03 | 0.06 ± 0.01 | 0.11 ± 0.02 | 0.06 ± 0.03 | 0.11 ± 0.03 |  |  |  |  | 
O=C(O)CCc1ccc(O)cc1 [DHCoA, 3-(4′-Hydroxyphenyl)propanoic acid] | 0.005 ± 0.003 | 0.006 ± 0.006 | 0.005 ± 0.005 | 0.014 ± 0.005 | 4 ± 1 | 6 ± 2 | 0.16 ± 0.04 | 0.09 ± 0.02 | 0.5 ± 0.2 | 0.6 ± 0.2 | 1.4 ± 0.4 | 0.4 ± 0.2 | 0.3 ± 0.1 | 0.9 ± 0.3 | 0.8 ± 0.3 | 1 ± 0.2 |  |  |  |  | Urinary excretion ([2]; week 0): 4 µmol/24 h; Urinary excretion ([2]; week 8): 6 µmol/24 h

More lines, main results first:

Amount of fecal metabolite excreted at 0 h ([1]; week 0, mean ± SEM, n = 9) [µmol/g] | Amount of fecal metabolite excreted at 0 h ([1]; week 8) [µmol/g] | Amount of fecal metabolite excreted at 24 h ([1]; week 0) [µmol/g] | Amount of fecal metabolite excreted at 24 h ([1]; week 8) [µmol/g] | Cumulative urinary excretion, Total 0–24 h ([2]; week 0) [µmol] | Cumulative urinary excretion, Total 0–24 h ([2]; week 8) [µmol] | Amount excreted in urine, 0- 3 h ([2]; week 0, interval 0–3 h) [µmol] | Amount excreted in urine, 3-6 h ([2]; week 0, interval 3–6 h) [µmol] | Amount excreted in urine, 6-9 h ([2]; week 0, interval 6–9 h) [µmol] | Amount excreted in urine, 9-11 h ([2]; week 0, interval 9–11 h) [µmol] | Amount excreted in urine, 11-24 h ([2]; week 0, interval 11–24 h) [µmol] | Amount excreted in urine, 0- 3 h ([2]; week 8, interval 0–3 h) [µmol] | Amount excreted in urine, 3-6 h ([2]; week 8, interval 3–6 h) [µmol] | Amount excreted in urine, 6-9 h ([2]; week 8, interval 6–9 h) [µmol] | Amount excreted in urine, 9-11 h ([2]; week 8, interval 9–11 h) [µmol] | Amount excreted in urine, 11-24 h ([2]; week 8, interval 11–24 h) [µmol] | SMILES | AUC(0-t) ([3]; human, oral, week 0) [µM·h] | AUC(0-t) ([3]; human, oral, week 8) [µM·h] | Tmax [3, 4] [h] | Tmax [3, 5] [h] | also measured
0.003 ± 0.003 | 0.0010 ± 0.0007 | 0.003 ± 0.003 | 0.003 ± 0.002 | 0.29 ± 0.07 | 0.34 ± 0.07 | 0.15 ± 0.04 | 0.1 ± 0.04 | 0.021 ± 0.006 | 0.007 ± 0.004 | 0.01 ± 0.005 | 0.19 ± 0.04 | 0.08 ± 0.02 | 0.05 ± 0.01 | 0.014 ± 0.008 | 0.015 ± 0.007 | COc1cc(/C=C/C(=O)O[C@@H]2C[C@@](O)(C(=O)O)C[C@@H](O)[C@@H]2O)ccc1O [3-Feruloylquinic acid] |  |  |  |  | 
 | 0.001 ± 0.001 |  | 0.0004 ± 0.0004 | 0.4 ± 0.2 | 0.4 ± 0.1 | 0.2 ± 0.1 | 0.15 ± 0.05 | 0.02 ± 0.01 | 0.003 ± 0.002 |  | 0.21 ± 0.08 | 0.13 ± 0.03 | 0.03 ± 0.01 |  | 0.02 ± 0.02 | COc1cc(/C=C/C(=O)OC2[C@H](O)CC(O)(C(=O)O)C[C@H]2O)ccc1O (stereo partly drawn) [4-Feruloylquinic acid] |  |  |  |  | AUC0–24h ([3]; week 0): 0.06 ± 0.01 µM/min; Cmax [3, 8]: 29 ± 4 nM; Tmax (h) or Range [3, 9]: 0.9 ± 0.1 h; AUC0–24h ([3]; week 8): 0.07 ± 0.01 µM/min; Cmax [3, 10]: 31 ± 4 nM; Tmax (h) or Range [3, 11]: 0.9 ± 0.1 h
0.04 ± 0.01 | 0.06 ± 0.02 | 0.05 ± 0.01 | 0.08 ± 0.02 | 0.03 ± 0.02 | 0.03 ± 0.01 | 0.012 ± 0.006 | 0.005 ± 0.003 | 0.003 ± 0.002 | 0.003 ± 0.002 | 0.01 ± 0.004 | 0.004 ± 0.003 | 0.002 ± 0.001 | 0.002 ± 0.002 | 0.002 ± 0.002 | 0.015 ± 0.008 | O=C(CCc1ccc(O)c(O)c1)OC1CC(O)(C(=O)O)CC(O)C1O (stereo not drawn) [5-Dihydrocaffeoylquinic acid] |  |  |  |  | 
